Source: patent US12018001B2, “Pyrimidine cyclohexenyl glucocorticoid receptor modulators” (priority 2018, dated 2024)
Read-outs that look alike come from different tables or passages of the source.

What was measured:
GR = molecular target: T1, GR (Homo sapiens, UniProt P04150); experiment: GR binding
T1 sequence (P04150 1-777): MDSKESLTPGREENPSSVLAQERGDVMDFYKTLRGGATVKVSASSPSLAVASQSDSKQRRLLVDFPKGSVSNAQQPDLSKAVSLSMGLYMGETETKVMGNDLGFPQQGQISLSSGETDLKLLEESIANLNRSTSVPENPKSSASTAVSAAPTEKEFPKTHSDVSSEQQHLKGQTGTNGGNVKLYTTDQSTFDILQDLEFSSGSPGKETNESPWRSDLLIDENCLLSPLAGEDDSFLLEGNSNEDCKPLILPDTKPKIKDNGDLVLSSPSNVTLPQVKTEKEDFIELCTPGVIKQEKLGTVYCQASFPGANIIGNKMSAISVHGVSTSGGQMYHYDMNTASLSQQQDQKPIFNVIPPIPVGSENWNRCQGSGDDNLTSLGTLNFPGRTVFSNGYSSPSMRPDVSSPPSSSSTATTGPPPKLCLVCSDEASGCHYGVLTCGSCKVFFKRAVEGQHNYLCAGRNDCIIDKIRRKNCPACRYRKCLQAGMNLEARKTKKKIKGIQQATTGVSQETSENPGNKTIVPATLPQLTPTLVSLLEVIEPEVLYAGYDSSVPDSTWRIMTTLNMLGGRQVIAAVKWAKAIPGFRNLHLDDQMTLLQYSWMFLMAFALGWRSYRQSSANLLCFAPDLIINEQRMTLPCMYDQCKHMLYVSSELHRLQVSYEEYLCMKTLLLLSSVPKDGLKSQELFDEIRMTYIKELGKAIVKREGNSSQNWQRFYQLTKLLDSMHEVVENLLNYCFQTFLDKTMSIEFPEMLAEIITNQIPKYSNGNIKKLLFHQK

glucocorticoid receptor = molecular target: T2, glucocorticoid receptor (Homo sapiens, UniProt P04150); experiment: Hep G2 TAT assay: induction of TAT by dexamethasone in HepG2 cells; assay type: cell-based
T2 construct: host or cells: HepG2
T2 sequence (P04150 1-777): T1 sequence (P04150 1-777)
Procedure: Glucocorticoid mediated activation of TAT occurs by transactivation of glucocorticoid response elements in the TAT promoter by glucocorticoid receptor-agonist complex.
TAT activity was measured as outlined in the literature by A. Ali et al., J. Med. Chem., 2004, 47, 2441-2452.
HepG2 cells were cultured using MEME media supplemented with 10% (v/v) foetal bovine serum; 2 mM L-glutamine and 1% (v/v) NEAA at 37° C., 5%/95% (v/v) CO2/air. The HepG2 cells were counted and adjusted to yield a density of 0.125×10^6 cells/ml in RPMI 1640 without phenol red, 10% (v/v) charcoal stripped FBS, 2 mM L-glutamine and seeded at 25,000 cells/well in 200 μl into 96 well, sterile, tissue culture micro titre plates, and incubated at 37° C., 5% CO2 for 24 hours
Growth media was removed and replaced with assay media {RPMI 1640 without phenol red, 2 mM L-glutamine+10 μM forskolin}. […] Compounds were serially half log diluted in 100% (v/v) dimethylsulphoxide from a 10 mM stock.
HepG2 cells were then lysed with 30 μl of cell lysis buffer containing a protease inhibitor cocktail for 15 minutes at 4° C. 155 μl of substrate mixture was then added containing 5.4 mM Tyrosine sodium salt, 10.8 mM alpha ketoglutarate and 0.06 mM pyridoxal 5′ phosphate in 0.1 M potassium phosphate buffer (pH 7.4). After 2 hours incubation at 37° C. the reaction was terminated by the addition of 15 μl of 10 M aqueous potassium hydroxide solution, and the plates incubated for a further 30 minutes at 37° C. The TAT activity product was measured by absorbance at λ 340 nm.
[compound] and fitting the data to a 4 parameter logistic equation.

[1] = Rat pharmacokinetics (PK) studies, oral gavage cassette; assay type: in vivo, male Sprague Dawley rats; details: male, Sprague Dawley (or equivalent), rat plasma; for AUC(0-t): read-out: AUC0-24
Procedure: Rat PK studies were conducted in male Sprague Dawley rats (or equivalent) with 3 rats per group. Compounds were evaluated in cassettes of 4 compounds per cassette, with each cassette containing 3 test compounds and one comparator compound with known PK parameters. Rats were cannulated in the jugular vein. The compounds were administered by oral gavage using a suitable vehicle, such as 10% DMSO and 90% methyl cellulose. Compounds of Example 1, Example 10, Example 14, and Example 20 were evaluated with a nominal dose of 1.25 mg/kg and the compound of Example 32 was evaluated with a nominal dose of 3 mg/kg. Blood samples were collected at various timepoints out to 24 hours post-dose and processed to provide plasma. Compound concentrations in the plasma samples were determined by LC/MS analysis. Cmax and AUC were calculated using WinNonlin.

## CNS(=O)(=O)c1cc(C(F)(F)F)ccc1C1=CCC(c2[nH]c(=O)[nH]c(=O)c2Cc2ccccc2)CC1 (centres unmarked) [Example 96]
GR
  IC50: 5090 nM

## CCOc1ccc(C2=CCC(c3[nH]c(=O)[nH]c(=O)c3Cc3ccccc3)CC2)c(Cl)c1 (centres unmarked) [Example 82]
GR
  IC50: 4.4 nM

## O=c1[nH]c(C2CC=C(c3ccc(OC4CC4)cc3Cl)CC2)c(Cc2ccccc2)c(=O)[nH]1 (centres unmarked) [Example 93]
GR
  IC50: 10 nM

## CCS(=O)(=O)c1cc(F)c(C2=CCC(c3[nH]c(=O)[nH]c(=O)c3Cc3ccccc3)CC2)c(F)c1 (centres unmarked) [Example 105]
GR
  IC50: 71.6 nM

## CN(C)c1ccc(C2=CCC(c3[nH]c(=O)[nH]c(=O)c3Cc3ccccc3)CC2)cn1 (centres unmarked) [Example 70]
GR
  IC50: 142 nM

## O=c1[nH]c(C2CC=C(c3cccc4nncn34)CC2)c(Cc2ccccc2)c(=O)[nH]1 (centres unmarked) [Example 88]
GR
  IC50: 483 nM

## Cn1cnc2ccc(C3=CCC(c4[nH]c(=O)[nH]c(=O)c4Cc4ccccc4)CC3)cc21 (centres unmarked) [Example 66]
GR
  IC50: 3520 nM

## O=c1[nH]c(C2CC=C(c3cnc(C(F)(F)F)nc3)CC2)c(Cc2ccccc2)c(=O)[nH]1 (centres unmarked) [Example 72]
GR
  IC50: 1920 nM

## O=c1[nH]c(C2CC=C(c3ccc4ncsc4c3)CC2)c(Cc2ccccc2)c(=O)[nH]1 (centres unmarked) [Example 64]
GR
  IC50: 142 nM

## N#Cc1ccc(C2=CCC(c3[nH]c(=O)[nH]c(=O)c3Cc3ccccc3)CC2)c(Cl)c1 (centres unmarked) [Example 1, 4′-(5-benzyl-2,6-dioxo-1,2,3,6-tetrahydropyrimidin-4-yl)-2-chloro-2′,3′,4′,5′-tetrahydro-[1,1′-biphenyl]-4-carbonitrile]
Glucocorticoid receptor
  Ki: 28 nM
[1]; nominal dose 1.25 mg/kg
  Cmax: 114 ng/mL
  AUC(0-t): 991 ng·h/mL

## COc1cc(C#N)ccc1C1=CCC(c2[nH]c(=O)[nH]c(=O)c2Cc2ccccc2)CC1 (centres unmarked) [Example 20]
Glucocorticoid receptor
  Ki: 33 nM
[1]; nominal dose 1.25 mg/kg
  Cmax: 83.6 ng/mL
  AUC(0-t): 375 ng·h/mL

## O=c1[nH]c(C2CC=C(c3cccnc3C(F)(F)F)CC2)c(Cc2ccccc2)c(=O)[nH]1 (centres unmarked) [Example 14]
Glucocorticoid receptor
  Ki: 41 nM
[1]; nominal dose 1.25 mg/kg
  Cmax: 63 ng/mL
  AUC(0-t): 188 ng·h/mL

## O=c1[nH]c(C2CC=C(c3ccc(Cl)c(F)c3F)CC2)c(Cc2ccccc2)c(=O)[nH]1 (centres unmarked) [Example 83]
GR
  IC50: 38.3 nM

## Cn1ncc2ccc(C3=CCC(c4[nH]c(=O)[nH]c(=O)c4Cc4ccccc4)CC3)cc21 (centres unmarked) [Example 57]
GR
  IC50: 266 nM

## CC(C)Oc1cc(C(F)(F)F)ccc1C1=CCC(c2[nH]c(=O)[nH]c(=O)c2Cc2ccccc2)CC1 (centres unmarked) [Example 59]
GR
  IC50: 134 nM

## O=c1[nH]c(C2CC=C(c3ccc(C(F)(F)F)c(Cl)c3)CC2)c(Cc2ccccc2)c(=O)[nH]1 (centres unmarked) [Example 69]
GR
  IC50: 3420 nM

## O=c1[nH]c(C2CC=C(c3ccc(OC(F)F)cc3Cl)CC2)c(Cc2ccccc2)c(=O)[nH]1 (centres unmarked) [Example 108]
GR
  IC50: 5.4 nM

## CCS(=O)(=O)c1ccc(C2=CCC(c3[nH]c(=O)[nH]c(=O)c3Cc3ccccc3)CC2)c(Cl)c1 (centres unmarked) [Example 107]
GR
  IC50: 2.8 nM

## N#Cc1ccc(C2=CCC(c3[nH]c(=O)[nH]c(=O)c3Cc3ccccc3)CC2)c(C(F)(F)F)c1 (centres unmarked) [Example 32]
Glucocorticoid receptor
  Ki: 66 nM
[1]; nominal dose 3 mg/kg
  Cmax: 453 ng/mL
  AUC(0-t): 988 ng·h/mL

## O=c1[nH]c(C2CC=C(c3ccc(OCC4CC4)cc3C(F)(F)F)CC2)c(Cc2ccccc2)c(=O)[nH]1 (centres unmarked) [Example 95]
GR
  IC50: 23 nM

## CN(C)c1ncccc1C1=CCC(c2[nH]c(=O)[nH]c(=O)c2Cc2ccccc2)CC1 (centres unmarked) [Example 118]
GR
  IC50: 0.76 nM

## CN(C)S(=O)(=O)c1cc(F)c(C2=CCC(c3[nH]c(=O)[nH]c(=O)c3Cc3ccccc3)CC2)c(F)c1 (centres unmarked) [Example 104]
GR
  IC50: 3160 nM

## O=c1[nH]c(C2CC=C(c3ccc(Cl)cc3C(F)(F)F)CC2)c(Cc2ccccc2)c(=O)[nH]1 (centres unmarked) [Example 10]
Glucocorticoid receptor
  Ki: 38 nM
[1]; nominal dose 1.25 mg/kg
  Cmax: 196 ng/mL
  AUC(0-t): 3040 ng·h/mL

## O=c1[nH]c(C2CC=C(c3cccc(Cl)c3C(F)(F)F)CC2)c(Cc2ccccc2)c(=O)[nH]1 (centres unmarked) [Example 35]
Glucocorticoid receptor
  Ki: 59 nM

## COc1ccc(F)cc1C1=CCC(c2[nH]c(=O)[nH]c(=O)c2Cc2ccccc2)CC1 (centres unmarked) [Example 12]
Glucocorticoid receptor
  Ki: 350 nM

## O=c1[nH]c(C2CC=C(c3ccc(C(F)(F)F)nc3N3CCCC3)CC2)c(Cc2ccccc2)c(=O)[nH]1 (centres unmarked) [Example 113]
Glucocorticoid receptor
  Ki: 75 nM

## CS(=O)(=O)c1ccc(C2=CCC(c3[nH]c(=O)[nH]c(=O)c3Cc3cccc(C(F)(F)F)c3)CC2)c(F)c1 (centres unmarked) [Example 116]
Glucocorticoid receptor
  Ki: 170 nM

## O=c1[nH]c(C2CC=C(c3ccc(OC(F)(F)F)cc3F)CC2)c(Cc2ccccc2)c(=O)[nH]1 (centres unmarked) [Example 67]
Glucocorticoid receptor
  Ki: 120 nM

## Cc1nn(C)cc1C1=CCC(c2[nH]c(=O)[nH]c(=O)c2Cc2ccccc2)CC1 (centres unmarked) [Example 58]
Glucocorticoid receptor
  Ki: 520 nM

## Cc1nn(C)c(C)c1C1=CCC(c2[nH]c(=O)[nH]c(=O)c2Cc2ccccc2)CC1 (centres unmarked) [Example 80]
GR
  IC50: 295 nM

## CN(C)S(=O)(=O)c1cc(C(F)(F)F)ccc1C1=CCC(c2[nH]c(=O)[nH]c(=O)c2Cc2ccccc2)CC1 (centres unmarked) [Example 97]
GR
  IC50: 2560 nM

## O=c1[nH]c(C2CC=C(c3cccc(C(F)(F)F)c3Cl)CC2)c(Cc2ccccc2)c(=O)[nH]1 (centres unmarked) [Example 36]
Glucocorticoid receptor
  Ki: 110 nM

## CS(=O)(=O)c1ccc(C2=CCC(c3[nH]c(=O)[nH]c(=O)c3Cc3ccccc3)CC2)c(Cl)c1 (centres unmarked) [Example 106]
GR
  IC50: 2.1 nM

## CS(=O)(=O)c1ccccc1C1=CCC(c2[nH]c(=O)[nH]c(=O)c2Cc2ccccc2)CC1 (centres unmarked) [Example 15]
Glucocorticoid receptor
  Ki: 520 nM

## Cc1cc(C2=CCC(c3[nH]c(=O)[nH]c(=O)c3Cc3ccccc3)CC2)n(C)n1 (centres unmarked) [Example 63]
Glucocorticoid receptor
  Ki: 632 nM

## Cc1ccccc1C1=CCC(c2[nH]c(=O)[nH]c(=O)c2Cc2ccccc2)CC1 (centres unmarked) [Example 13]
Glucocorticoid receptor
  Ki: 83 nM

## N#Cc1cc(C(F)(F)F)ccc1C1=CCC(c2[nH]c(=O)[nH]c(=O)c2Cc2ccccc2)CC1 (centres unmarked) [Example 38]
Glucocorticoid receptor
  Ki: 75 nM

## O=c1[nH]c(C2CC=C(c3ccc(OCC4CC4)cc3Cl)CC2)c(Cc2ccccc2)c(=O)[nH]1 (centres unmarked) [Example 85, 5-benzyl-6-(2′-chloro-4′-(cyclopropylmethoxy)-2,3,4,5-tetrahydro-[1,1′-biphenyl]-4-yl)pyrimidine-2,4(1H,3H)-dione]
Glucocorticoid receptor
  Ki: 1400 nM

## CCS(=O)(=O)c1ccc(C2=CCC(c3[nH]c(=O)[nH]c(=O)c3Cc3ccccc3)CC2)c(F)c1 (centres unmarked) [Example 101]
Glucocorticoid receptor
  Ki: 65 nM

## O=c1[nH]c(C2CC=C(c3ccccc3Cl)CC2)c(Cc2ccccc2)c(=O)[nH]1 (centres unmarked) [Example 8]
Glucocorticoid receptor
  Ki: 52 nM

## CS(=O)(=O)c1ccc(C2=CCC(c3[nH]c(=O)[nH]c(=O)c3Cc3cccc(F)c3F)CC2)c(F)c1 (centres unmarked) [Example 115, 5-(2,3-difluorobenzyl)-6-(2′-fluoro-4′-(methylsulfonyl)-2,3,4,5-tetrahydro-[1,1′-biphenyl]-4-yl)pyrimidine-2,4(1H,3H)-dione]
Glucocorticoid receptor
  Ki: 85 nM

## O=c1[nH]c(C2CC=C(c3ccc4c(c3)OCCO4)CC2)c(Cc2ccccc2)c(=O)[nH]1 (centres unmarked) [Example 65]
GR
  IC50: 103 nM

## N#Cc1cccc(C2=CCC(c3[nH]c(=O)[nH]c(=O)c3Cc3ccccc3)CC2)c1 (centres unmarked) [Example 33]
Glucocorticoid receptor
  Ki: 740 nM
